According to the supplement of paper PMC13380429:

Legend:
Details in all cases: 72 h
[1] = system: U2OS; test: cell viability relative to DMSO; higher = less toxic
[2] = system: HepG2; test: as above
[3] = system: Vero E6; test: as above
[4] = system: Caco-2; test: as above
[5] = system: Calu-3; test: as above
[6] = system: U2OS; test: drug sensitivity score (DSS) for viability; higher = more toxic; extreme values may be limits of the assay
[7] = system: HepG2; test: as above
[8] = system: Vero E6; test: as above
[9] = system: Caco-2; test: as above
[10] = system: Calu-3; test: as above
[11] = system: U2OS; test: relative viability EC50 (midpoint between 100% and the lowest measured viability); higher = less toxic
[12] = system: HepG2; test: as above
[13] = system: Vero E6; test: as above
[14] = system: Caco-2; test: as above
[15] = system: Calu-3; test: as above

Compound	cell viability ([1]; 1 nM)	cell viability ([1]; 10 nM)	cell viability ([1]; 100 nM)	cell viability ([1]; 1000 nM)	cell viability ([1]; 10000 nM)	cell viability ([2]; 1 nM)	cell viability ([2]; 10 nM)	cell viability ([2]; 100 nM)	cell viability ([2]; 1000 nM)	cell viability ([2]; 10000 nM)	cell viability ([3]; 1 nM)	cell viability ([3]; 10 nM)	cell viability ([3]; 100 nM)	cell viability ([3]; 1000 nM)	cell viability ([3]; 10000 nM)	cell viability ([4]; 1 nM)	cell viability ([4]; 10 nM)	cell viability ([4]; 100 nM)	cell viability ([4]; 1000 nM)	cell viability ([4]; 10000 nM)	cell viability ([5]; 1 nM)	cell viability ([5]; 10 nM)	cell viability ([5]; 100 nM)	cell viability ([5]; 1000 nM)	cell viability ([5]; 10000 nM)	drug sensitivity score [6]	drug sensitivity score [7]	drug sensitivity score [8]	drug sensitivity score [9]	drug sensitivity score [10]	relative viability EC50 [11]	relative viability EC50 [12]	relative viability EC50 [13]	relative viability EC50 [14]	relative viability EC50 [15]
Cc1c(C(=O)NC2CCCCC2)sc2nc3ccc(N)cc3n12	102%	94.6%	96.4%	98.1%	102%	94.1%	101%	92.8%	104%	107%	99.4%	103%	96.9%	103%	107%	105%	97%	101%	103%	104%	93.7%	109%	83.3%	97.4%	103%	0	0	0	0	0	> 10 µM	> 10 µM	> 10 µM	> 10 µM	> 10 µM
CCCc1nn(C)c2c(=O)[nH]c(-c3cc(S(=O)(=O)N4CCN(C)CC4)ccc3OCC)nc12 [sildenafil]	99.3%	98.3%	101%	99.9%	103%	96.7%	104%	99.4%	102%	81.8%	98.3%	111%	95.1%	101%	96.1%	93.7%	86.3%	93.8%	84.6%	93.9%	106%	94.6%	105%	91.8%	129%	0	0.3	0	0	0	> 10 µM	> 10 µM	> 10 µM	> 10 µM	> 10 µM
CCN(CC)C(=O)N[C@H]1C=C2c3cccc4[nH]cc(c34)C[C@H]2N(C)C1 [lisuride]	99.9%	100%	100%	93.4%	96%	87.7%	90%	101%	97.4%	96.3%	97.7%	106%	93.5%	102%	106%	102%	81.3%	101%	115%	100%	96%	88.6%	104%	85%	105%	0	0	0	0	0	> 10 µM	> 10 µM	> 10 µM	> 10 µM	> 10 µM
CSc1ccc(OCc2ncc([N+](=O)[O-])n2C)cc1 [fexinidazole]	98.3%	103%	99.7%	97.1%	98.5%	92.7%	85.9%	104%	105%	88.4%	103%	101%	99.7%	101%	97%	106%	104%	105%	96.7%	96.9%	100%	98.5%	78.6%	101%	97.9%	0	0	0	0	0	> 10 µM	> 10 µM	> 10 µM	> 10 µM	> 10 µM
Cc1cc2nc3c(=O)[nH]c(=O)nc-3n(C[C@H](O)[C@H](O)[C@H](O)CO)c2cc1C [riboflavin]	97.4%	101%	96.2%	102%	94.6%	95.9%	85%	93.7%	93.4%	93%	96.6%	91.9%	96.3%	94.2%	95.4%	99%	95.3%	92.7%	107%	96.8%	102%	104%	86%	107%	92.2%	0	0	0	0	0	> 10 µM	> 10 µM	> 10 µM	> 10 µM	> 10 µM
CCOC(=O)c1c(C)n(C)c2ccc(O)cc12 [mecarbinate]	97.1%	102%	94.6%	100%	107%	107%	104%	105%	97.8%	107%	99.7%	98.4%	100%	92.9%	109%	95.1%	98.9%	96%	103%	105%	101%	101%	98.6%	90.6%	106%	0	0	0	0	0	> 10 µM	> 10 µM	> 10 µM	> 10 µM	> 10 µM
N=C1NC(=O)/C(=C/c2ccc(O)cc2)S1 [mirin]	95.3%	101%	97.5%	99.6%	97.9%	98.3%	91.1%	95.2%	98%	96.8%	99.2%	96.2%	96.5%	93.3%	104%	95%	97.8%	101%	97.6%	96.2%	89.9%	105%	94.8%	93.4%	87.8%	0	0	0	0	0.1	> 10 µM	> 10 µM	> 10 µM	> 10 µM	> 10 µM
